Tests used:
Type in all cases: cell-based
[1] = system: MAPK14 (mitogen-activated protein kinase 14); experiment: Gene expression experiment (real-time PCR) in SH-SY5Y cells: MAPK14; conditions: 12.56 μM, amyloid β protein-treated cells, 24 h; compared to “Aβ”
Description: (§1) SH-SY5Y cells were seeded in 100 mm-cell dishes (BD Biocoat) at concentrations of 3.7×10^5 cells/mL (10 mL/dish) and cultured for 24 h at 37° C. and 5% CO2. Culture medium used was F12/DMEM (Gibco) supplemented with 1% non-essential amino acids (Gibco), 15% FBS (Bio West), and 1% penicillin/streptomycin (Lonza). After 24 h, the culture medium was completely removed with an aspirator, 10 mL of culture medium Opti-MEM(Gibco) was added to each dish, and the cells were cultured for 24 h at 37° C. and 5% CO2. RNA was extracted from the culture cells and analyzed for the expression of genes described below by real-time PCR (designated as “Control” in FIGS. 2 to 8).
(§2) RNA extraction was performed using ISOGEN Reagent (Nippon Gene Co., Ltd.) in accordance with the protocol recommended by Nippo n Gene Co., Ltd. (see URL: https://www.nippongene.com/siyaku/product/extraction/tds/tds_isogen-rna-dna-protein.pdf). Real-time PCR was performed according to the protocol recommended by Thermo Fisher Scientific using a reagent kit for TaqMan Real-Time PCR (Thermo Fisher Scientific) (see URL: https://assets.thermofisher.com/TFS-Assets/LSG/manuals/4304449_TaqManPCRMM_UG.pdf).
(§3) 24 h after seeding 100 mm-cell dishes (BD Biocoat) with SH-SY5Y cells, the culture medium was completely removed with an aspirator, amyloid β protein (Beta-Amyloid 1-42, AnaSpec) was mixed with Opti-MEM (Gibco) so that the final concentration was 5 μM, 10 mL of the mixture was added to each dish, the cells were cultured for 24 h at 37° C. and 5% CO2, and RNA was extracted. Except for performing the procedure described above, gene expression was analyzed as described above (designated as “Aβ” in FIGS. 2 to 8).
(§4) 24 h after seeding 100 mm-cell dishes (BD Biocoat) with SH-SY5Y cells, the culture medium was completely removed with an aspirator, Sample 1 was mixed with culture medium Opti-MEM(Gibco) so that the final concentration was 12.56 μM, 9,990 μL of the mixture was added to each dish and allowed to stand for 10 min, amyloid β protein (Beta-Amyloid 1-42, AnaSpec) was mixed with Opti-MEM (Gibco) so that the final concentration was […], 10 μL of the mixture was added to each well, the cells were cultured for 24 h at 37° C. and 5% CO2, and RNA was extracted. Except for performing the procedure described above, Gene expression was analyzed as described above (designated as “Aβ+M3,5G” in FIGS. 2 to 8).
(§5) Except that Sample 2 was used instead of Sample 1, gene expression was analyzed as described above (designated as “Aβ+M” in FIGS. 2 to 8).
(§6) Except that Sample 3 was used instead of Sample 1, gene expression was analyzed as described above (designated as “Aβ+M3G” in FIGS. 2 to 8). […]

CASP3 (caspase-3) = experiment: Gene expression experiment (real-time PCR) in SH-SY5Y cells: CASP3; conditions: 12.56 μM, amyloid β protein-treated cells, 24 h; compared to “Aβ”
Description: as §1, §2, §3, §4, §5
(§7) Except that Sample 3 was used instead of Sample 1, gene expression was analyzed as described above (designated as “Aβ+M3G” in FIGS. 2 to 8).
(§8) 24 h after seeding 100 mm-cell dishes (BD Biocoat) with SH-SY5Y cells, the culture medium was completely removed with an aspirator, 10 mL of culture medium Opti-MEM(Gibco) mixed with Sample 1 was added to each dish, the cells were cultured for 24 h at 37° C. and 5% CO2, and RNA was extracted. Except for performing the procedure described above, gene expression was analyzed as described above (designated as “M3,5G” in FIGS. 2 to 8).

[2] = system: MAPK8 (mitogen-activated protein kinase 8); experiment: Gene expression experiment (real-time PCR) in SH-SY5Y cells: MAPK8; conditions: 12.56 μM, amyloid β protein-treated cells, 24 h; compared to “Aβ”
Description: as §1, §2, §3, §4, §5, §6

[3] = system: AKT1 (AKT serine/threonine kinase 1); experiment: Gene expression experiment (real-time PCR) in SH-SY5Y cells: AKT1; conditions: 12.56 μM, amyloid β protein-treated cells, 24 h; compared to “Aβ”
Description: as §1, §2, §3, §4, §5, §7, §8

SH-SY5Y cells = experiment: Cell survival experiment (MTT), cell death induced by amyloid β protein; conditions: compound 12.56 μM, 72 h, compared to “Aβ”
Description: Each well of a 96-well plate (BD Biocoat) was seeded with SH-SY5Y cells (model of neuronal cells, ATCC) at a concentration of 2×10^5 cells/mL (100 μL/well) and the cells were cultured at 37° C. and 5% CO2 for 24 h. Culture medium used was F12/DMEM (Gibco) supplemented with 1% non-essential amino acids (Gibco), 15% FBS (Bio West), and 1% penicillin/streptomycin (Lonza).
After 24 h, the culture medium was completely removed with an aspirator, 100 μL of culture medium Opti-MEM (Gibco) was added to each well, and the cells were cultured at 37° C. and 5% CO2 for 24 h. […]
Absorbance at 570 nm was measured on a microplate reader (Sumitomo Dainippon Pharma) to measure the MTT formazan production to calculate % relative cell survival (designated as “Control” in FIG. 1).
24 h after seeding a 96-well plate (BD Biocoat) with SH-SY5Y cells, the culture medium was completely removed with an aspirator, amyloid β protein (Beta-Amyloid 1-42, AnaSpec) was mixed with Opti-MEM (Gibco) so that the final concentration was 15 μM, 100 μL of the mixture was added to each well, and the cells were cultured at 37° C. and 5% CO2 for 72 h to induce cell death. Except for performing the procedure described above, the MTT formazan production was measured as described above to calculate % relative cell survival (designated as “Aβ” in FIG. 1). […]

[4] = system: PARP1 (poly(ADP-ribose) polymerase 1); experiment: Gene expression experiment (real-time PCR) in SH-SY5Y cells: PARP1; conditions: 12.56 μM, amyloid β protein-treated cells, 24 h; compared to “Aβ”
Description: as §1, §2, §3, §4, §5, §6

[5] = system: PI3KCA (phosphatidylinositol-4,5-bisphosphate 3-kinase catalyst subunit α); experiment: Gene expression experiment (real-time PCR) in SH-SY5Y cells: PI3KCA; conditions: 12.56 μM, amyloid β protein-treated cells, 24 h; compared to “Aβ”
Description: as §1, §2, §3, §4, §5, §7, §8

[6] = system: MAP2K4 (mitogen-activated protein kinase 4); experiment: Gene expression experiment (real-time PCR) in SH-SY5Y cells: MAP2K4; conditions: 12.56 μM, amyloid β protein-treated cells, 24 h; compared to “Aβ”
Description: as §1, §2, §3, §4, §5, §7, §8

SMILES	expression of MAPK14 [1]	expression of CASP3 (CASP3 (caspase-3))	expression of MAPK8 [2]	expression of AKT1 [3]	% relative cell survival (SH-SY5Y cells)	expression of PARP1 [4]	expression of PI3KCA [5]	expression of MAP2K4 [6]
COc1cc(-c2[o+]c3cc(O)cc(O)c3cc2O)cc(OC)c1O [malvidin, Malvidin chloride, reference compound]	increase	decrease	increase	increase	Inhibition of cell death was also confirmed	increase	increase	increase
COc1cc(-c2[o+]c3cc(O)cc(O)c3cc2O[C@@H]2O[C@H](CO)[C@@H](O)[C@H](O)[C@H]2O)cc(OC)c1O.[Cl-] [malvidin-3-glucoside, Malvidin-3-glucoside chloride, reference compound]	increase			increase		increase	increase	increase

— US20220241308A1, “NEURONAL FUNCTION MODULATING AGENT” (University of Tsukuba, priority 2019, published 2022)
